Columns and labels:
[1] = molecular target: hα6^R87C + hβ4 + hβ3^V9’S nAChR (Homo sapiens, UniProt P30926+Q15825, R87C); settings: nicotine (100 μM), ACh (100 μM) or atropine (1000 μM)
Protocol: (§1) We planned to introduce identical amounts of cRNA, presumably producing equal amounts of each subunit protein, into oocytes largely due to lack of information about the levels of mRNA for each subunits that compose α6*-nAChRs in neurons or other cells. Concentrations of cRNAs for each nAChR α and β subunits (WT, mutant or variant) were adjusted to 500 ng μL^−1. We provisionally assumed that hα6 or its variants in association with hβ2 or hβ4 subunits would form complexes having 2:3 and/or 3:2 ratios of the indicated subunits and that oocytes also injected with WT or mutant form of β3 subunits (i.e., β3^V9’S) would express nAChR with 2:2:1 ratios of α:β:(β3 or β3^V9’S) subunits. For expression of binary nAChRs (i.e., two subunit containing nAChRs; α + β but not β3) cRNA mixtures were prepared by mixing 1 μL of cRNA for each subunit and an additional μL of RNAse free water (i.e., total volume 3 μL). Similarly for expression of ternary nAChRs [i.e., three subunit containing nAChRs; (α + β) + (β3 or β3^V9’S)] cRNA mixtures were prepared by mixing 1 μL of cRNA for each subunit. Several preparations of each mixture were prepared and stored at −80°C until further use. Injection of 138 nL of cRNA, out of 3 μL cRNA mixtures, into each oocyte would deliver ~23 ng of cRNA for each subunit whether binary or ternary nAChRs are expressed.
(§2) Two to 5 days after injection, oocytes were placed in a small-volume chamber and continuously perfused with OR2. The chamber was grounded through an agarose bridge. The oocytes were voltage-clamped at −70 mV (unless otherwise noted) to measure agonist or antagonist induced currents using Axoclamp 900A and pClamp 10.2 software (Molecular Devices, Sunnyvale, CA). The current signal was low-pass filtered at 10 Hz with the built-in low-pass Bessel filter in the Axoclamp 900A and digitized at 20 Hz with Axon Digidata1440A and pClamp10. […] Drugs (agonists and antagonists) were prepared daily in OR2. Drug was applied using a Valvelink 8.2 perfusion system (Automate scientific, Berkeley, CA). […] Then for the purpose of comparison electrophysiological recordings were performed in a given day in a given batch of oocytes following the same order of injections. […] All hβ4*-nAChR recordings were done in similar conditions to facilitate comparisons between hα6hβ4- and hα6hβ4hβ3-nAChRs. All electrophysiological measurements were conducted or checked in at least two batches of oocytes.

[2] = molecular target: hα6^S156Rhβ4hβ3^V9’S-nAChR (Homo sapiens, UniProt P30926+Q15825, S156R); settings: nicotine (100 μM), ACh (100 μM) or atropine (1000 μM)
Protocol: as §1, §2

[3] = molecular target: hα6^N171Khβ4β3^V9’S-nAChR (Homo sapiens, UniProt P30926+Q15825, N171K); settings: nicotine (100 μM), ACh (100 μM) or atropine (1000 μM)
Protocol: as §1, §2

hα6hβ4hβ3^V9’S-nAChR = hα6hβ4hβ3^V9’S-nAChR (Homo sapiens, UniProt P30926+Q05901+Q15825, V273S); settings: nicotine (100 μM), ACh (100 μM) or atropine (1000 μM); spontaneously opening channels
Protocol: as §1, §2

[4] = molecular target: hα6^D57Nhβ4hβ3^V9’S-nAChR (Homo sapiens, UniProt P30926+Q15825, D57N); settings: nicotine (100 μM), ACh (100 μM) or atropine (1000 μM)
hα6^D57Nhβ4hβ3^V9’S-nAChR, sequence (Q15825 26-494 D57N): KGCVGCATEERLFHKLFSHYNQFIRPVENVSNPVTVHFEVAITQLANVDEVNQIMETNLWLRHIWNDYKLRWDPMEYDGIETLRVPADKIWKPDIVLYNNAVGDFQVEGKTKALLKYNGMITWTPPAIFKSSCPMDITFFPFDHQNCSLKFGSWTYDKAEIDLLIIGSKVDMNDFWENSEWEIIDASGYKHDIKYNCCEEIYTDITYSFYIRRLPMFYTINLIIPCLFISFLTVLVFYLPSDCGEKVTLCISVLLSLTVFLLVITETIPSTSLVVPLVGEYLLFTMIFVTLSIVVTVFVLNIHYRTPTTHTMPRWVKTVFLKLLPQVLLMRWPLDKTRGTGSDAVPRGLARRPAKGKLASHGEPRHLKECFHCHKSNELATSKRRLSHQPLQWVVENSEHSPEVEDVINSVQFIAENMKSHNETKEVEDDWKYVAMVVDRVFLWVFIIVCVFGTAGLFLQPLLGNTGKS
hα6^D57Nhβ4hβ3^V9’S-nAChR, sequence (P30926 22-498): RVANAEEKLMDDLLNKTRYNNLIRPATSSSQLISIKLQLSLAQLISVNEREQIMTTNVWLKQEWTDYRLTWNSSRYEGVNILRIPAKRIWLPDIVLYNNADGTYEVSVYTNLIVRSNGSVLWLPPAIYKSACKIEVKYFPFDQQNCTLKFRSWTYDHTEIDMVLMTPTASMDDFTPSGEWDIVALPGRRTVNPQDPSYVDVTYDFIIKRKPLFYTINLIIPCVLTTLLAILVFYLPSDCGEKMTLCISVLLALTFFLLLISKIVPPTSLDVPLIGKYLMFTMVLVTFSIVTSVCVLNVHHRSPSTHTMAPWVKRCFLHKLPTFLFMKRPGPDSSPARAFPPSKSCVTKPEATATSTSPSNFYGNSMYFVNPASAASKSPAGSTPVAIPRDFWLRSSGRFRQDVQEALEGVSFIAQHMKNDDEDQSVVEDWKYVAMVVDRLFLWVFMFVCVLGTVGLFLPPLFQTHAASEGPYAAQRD
hα6^D57Nhβ4hβ3^V9’S-nAChR, sequence (Q05901 25-458 V273S partner limits assumed): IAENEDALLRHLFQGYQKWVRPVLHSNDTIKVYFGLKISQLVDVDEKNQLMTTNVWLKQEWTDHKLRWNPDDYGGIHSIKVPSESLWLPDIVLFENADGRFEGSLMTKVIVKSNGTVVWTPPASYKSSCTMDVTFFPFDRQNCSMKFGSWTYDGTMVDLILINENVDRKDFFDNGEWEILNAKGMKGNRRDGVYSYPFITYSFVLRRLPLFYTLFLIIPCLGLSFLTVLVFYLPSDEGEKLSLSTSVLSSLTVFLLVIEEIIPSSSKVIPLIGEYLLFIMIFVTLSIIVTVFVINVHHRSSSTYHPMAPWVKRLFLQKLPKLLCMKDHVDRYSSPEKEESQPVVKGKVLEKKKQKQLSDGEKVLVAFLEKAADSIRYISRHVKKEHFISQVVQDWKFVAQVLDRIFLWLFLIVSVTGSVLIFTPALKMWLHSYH
Protocol: as §1, §2

[5] = molecular target: hα6(R87C) + hβ4 + hβ3 nAChR (Homo sapiens, UniProt P30926+Q15825, R87C); settings: nicotine
Protocol: as §1, §2
(§3) Raw data was collected and processed in part using pClamp 10.2 (Molecular Devices, Sunnyvale, CA), Origin 7.5 (OriginLab Corporation, Northampton, MA) and a spreadsheet (Excel; Microsoft, Bellevue, WA). Peak current amplitudes (Imax) are reported as mean ± SEM (for results from at least three oocytes, i.e., n = 3).

[6] = molecular target: hα6(S233C) + codon optimized hβ2 + hβ3^V9’S nAChR (Homo sapiens, UniProt P17787+Q15825, S233C); settings: 100 μM nicotine; oocytes clamped at −70 mV
Protocol: as §1, §2, §3

[7] = molecular target: hα6(N46K) + hβ4 + hβ3 nAChR (Homo sapiens, UniProt P30926+Q15825, N46K); settings: 100 μM nicotine; oocytes clamped at −70 mV
hα6(N46K) + hβ4 + hβ3 nAChR, sequence (Q15825 26-494 N46K): as the sequence (Q15825 26-494 D57N) above, with N21K, N32D counted along it
hα6(N46K) + hβ4 + hβ3 nAChR, sequence (P30926 22-498): as the sequence (P30926 22-498) above
hα6(N46K) + hβ4 + hβ3 nAChR, sequence (Q05901 25-458 partner limits assumed): as the sequence (Q05901 25-458 V273S partner limits assumed) above, with S249V counted along it
Protocol: as §1, §2, §3

hα6(I226T) + hβ4 nAChR = hα6(I226T) + hβ4 nAChR (Homo sapiens, UniProt P30926+Q15825, I226T); settings: 100 μM nicotine; oocytes clamped at −70 mV
Protocol: as §1, §2, §3

[8] = molecular target: hα6(N171K) + hβ4 + hβ3 nAChR (Homo sapiens, UniProt P30926+Q15825, N171K); settings: nicotine
Protocol: as §1, §2, §3

[9] = molecular target: hα6(E101K) + WT hβ2 + hβ3^V9’S nAChR (Homo sapiens, UniProt P17787+Q15825, E101K); settings: 100 μM nicotine; 3 days after cRNA injection
Protocol: as §1, §2, §3

[10] = molecular target: hα6(A112V) + WT hβ2 + hβ3^V9’S nAChR (Homo sapiens, UniProt P17787+Q15825, A112V); settings: 100 μM nicotine; 3 days after cRNA injection
hα6(A112V) + WT hβ2 + hβ3^V9’S nAChR, sequence (Q15825 26-494 A112V): as the sequence (Q15825 26-494 D57N) above, with N32D, A87V counted along it
hα6(A112V) + WT hβ2 + hβ3^V9’S nAChR, sequence (P17787 26-502): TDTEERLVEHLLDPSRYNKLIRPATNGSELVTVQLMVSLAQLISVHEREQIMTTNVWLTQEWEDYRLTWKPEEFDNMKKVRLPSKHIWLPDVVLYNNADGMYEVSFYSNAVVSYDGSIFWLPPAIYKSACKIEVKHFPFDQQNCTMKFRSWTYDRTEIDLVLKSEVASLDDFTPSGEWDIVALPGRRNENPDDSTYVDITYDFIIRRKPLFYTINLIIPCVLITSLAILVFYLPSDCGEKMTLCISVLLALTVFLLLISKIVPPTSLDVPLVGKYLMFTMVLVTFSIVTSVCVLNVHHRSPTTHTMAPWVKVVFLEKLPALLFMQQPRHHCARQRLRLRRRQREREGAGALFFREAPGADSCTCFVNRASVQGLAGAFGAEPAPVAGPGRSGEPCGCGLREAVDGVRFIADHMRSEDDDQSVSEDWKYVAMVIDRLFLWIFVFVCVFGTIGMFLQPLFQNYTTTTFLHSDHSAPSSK
hα6(A112V) + WT hβ2 + hβ3^V9’S nAChR, sequence (Q05901 25-458 V273S partner limits assumed): as the sequence (Q05901 25-458 V273S partner limits assumed) above
Protocol: as §1, §2, §3

[11] = molecular target: hα6(D199Y) + codon optimized hβ2 + hβ3^V9’S nAChR (Homo sapiens, UniProt P17787+Q15825, D199Y); settings: 100 μM nicotine; oocytes clamped at −70 mV
Protocol: as §1, §2, §3

[12] = molecular target: hα6(S43P) + WT hβ2 + hβ3^V9’S nAChR (Homo sapiens, UniProt P17787+Q15825, S43P); settings: nicotine
Protocol: as §1, §2, §3

hα6(D92E) + hβ4 nAChR = hα6(D92E) + hβ4 nAChR (Homo sapiens, UniProt P30926+Q15825, D92E); settings: 100 μM nicotine; oocytes clamped at −70 mV
Protocol: as §1, §2, §3

hα6 + hβ4 nAChR = hα6 + hβ4 nAChR (Homo sapiens, UniProt P30926+Q15825); design: method as in Kuryatov et al. (2000) [29]; settings: ref Kuryatov et al. (2000) [29]; cited from earlier work

In the case of `CN1CCC[C@H]1c1cccnc1` [nicotine, L-nicotine], the current response [1] is reported as “not obtained”, the “current response (direction)” value [2] is reported as “outward reversible currents” and the “current response (direction)” value [3] is reported as “outward reversible currents”. For the same compound, the “current response (direction)” value (hα6hβ4hβ3^V9’S-nAChR) was “robust inward current”, the “current response (direction)” value [4] was “outward reversible currents” and the current response [5] was “did not elicit current responses”. The “peak current (Imax, mean ± SE)” value [6] was 1582 ± 221 nA, the “Mean (±SE) peak current response” value [7] was 307 ± 39 nA and the “peak current (Imax, mean ± SE)” value (hα6(I226T) + hβ4 nAChR) was 81 ± 10 nA. The current response [8] was “did not elicit current responses”, the peak current response [9] was 15-30 nA and the peak current response [10] was 15-30 nA. For the same compound, the “peak current (Imax, mean ± SE)” value [11] was 2076 ± 68 nA, the current response [12] was “did not yield current responses” and the “peak current (Imax, mean ± SE)” value (hα6(D92E) + hβ4 nAChR) was 19 ± 2 nA. The EC50 (hα6 + hβ4 nAChR) was 7.1 µM.

Source: publication PMC4022547 (Molecular Brain, 2014)
